Reference: PMC3928712 (ACS chemical biology, 2013)

Molecular target: 2009 pandemic H1N1 (pH1N1) PAN endonuclease (Influenza A virus, UniProt C3W5S0)
Details: for improvement in inhibitory activity compared to 2: relative to compound 2

Question: Which IC50 (enzymatic assay, PAN endonuclease) does the source give for `O=c1[nH]cc(Br)cc1O` [Compound 2] here?
Answer: The IC50 was 16 µM.

Question: For `N#Cc1cccc(-c2c[nH]c(=O)c(O)c2)c1` [Compound 3], which “improvement in inhibitory activity compared to 2” value is on record?
Answer: The value was 20 fold.

Question: Which “improvement in inhibitory activity compared to 2” value does the source give for `O=c1[nH]c(-c2ccccc2)ccc1O` [Compound 4] here?
Answer: The value was 40 fold.

Question: For `O=c1[nH]c(-c2ccc(F)cc2)c(-c2ccc(F)cc2)cc1O` [Compound 6], which “improvement in inhibitory activity compared to 2” value is on record?
Answer: Its value is 400 fold.
